Key:
[1] = system: wild-type U2OS cells; assay: Western blot pErk quantification; format: cell-based
Procedure: (§1) Lysis was visually confirmed with light microscopy, and lysates were added to gel loading buffer and run on Novex^TM wedgewell^TM 12% Tris-Glycine gels (Invitrogen XP00122) at 180 V for 1 h. Proteins were transferred from gels to polyvinylidene difluoride membranes using an iBlot 2 Dry Blotting System (Thermo Fisher IB21001). After transfer, membranes were blocked with either 5% bovine serum albumin or 5% nonfat milk in tris-buffered saline with tween (TBST) at room temperature for 1 h and then incubated with primary antibody (CST 9101 pErk at 1:500 dilution, CST 9102 Erk at 1:500 dilution, CST 3752 SHP2 at 1:300 dilution, or Sigma A1978 β-Actin at 1:3000 dilution) in respective blocking solution overnight at 4 °C, washed 3 × with TBST for 5 min, incubated with secondary antibody (ECL^TM Anti-Rabbit GE NA934V or Anti-Mouse GE NXA931V at 1:10,000 dilution) in respective blocking solution for 1 h at room temperature, and washed 3 x with TBST for 5 min. Following final wash, membranes were imaged on a GE Amersham Imager 600 using SuperSignal® West Pico Chemiluminescent Substrate (Pierce 34080). Linear brightness and contrast adjustments were applied uniformly across the entire image, and band densities were quantified using Fiji[24]. Western blot images are representative of at least two replicates, which were performed on different days.

[2] = system: PTPN11-null U2OS cells; assay: Western blot pErk quantification; format: cell-based; settings: 2 h treatment
Text: (§2) PTPN11−/−/− U2OS cells were generated using the methodology described by Zhang et al.[25]. In brief, CRISPR guides against the first three exons of the PTPN11 proto-oncogene were designed using the Sanger CRISPR database, cloned into the pSpCas9(BB)-2A-GFP vector, transfected into U2OS (ATCC® HTB-96^TM) cells using manufacturer-recommended Fugene®HD methodologies, and assayed for knockdown of SHP2 protein levels, via western blot, in bulk.
Lysis was visually confirmed with light microscopy, and lysates were added to gel loading buffer and run on Novex^TM wedgewell^TM 12% Tris-Glycine gels (Invitrogen XP00122) at 180 V for 1 h. Proteins were transferred from gels to polyvinylidene difluoride membranes using an iBlot 2 Dry Blotting System (Thermo Fisher IB21001). […] Linear brightness and contrast adjustments were applied uniformly across the entire image, and band densities were quantified using Fiji[24]. […]

[3] = system: PTPN11-null U2OS cells expressing SHP2^D61V; assay: Western blot pErk quantification; format: cell-based; settings: SHP2^D61V in PTPN11-null U2OS cells (other cancer mutants investigated)
Text: as §2
(§3) Mammalian SHP2 expression plasmids were designed from pCMV-SHP2 WT, which was provided as a gift from Ben Neel (Addgene plasmid #8381), using site-directed mutagenesis (QuikChange, Agilent; see Supplementary Table 4 for the sequences of all primers used in this study). Mutation acquisition and plasmid identity were confirmed via DNA sequencing.
as §1

[4] = system: PTPN11-null U2OS cells expressing SHP2^E76K; assay: Western blot pErk quantification; format: cell-based; settings: SHP2^E76K in PTPN11-null U2OS cells (other cancer mutants investigated)
Text: as §2, §3, §1

[5] = system: PTPN11-null U2OS cells expressing SHP2^F285S; assay: Western blot pErk quantification; format: cell-based; settings: read-out: IC50 for pErk reduction by SHP099; PTPN11-null U2OS cells harboring SHP2^F285S; 2 h treatment
Text: as §2, §3, §1

[6] = system: PTPN11-null U2OS cells expressing SHP2^G60V; assay: Western blot pErk quantification; format: cell-based; settings: SHP2^G60V in PTPN11-null U2OS cells (other cancer mutants investigated)
Text: as §2, §3, §1

[7] = system: PTPN11-null U2OS cells expressing SHP2^S502P; assay: Western blot pErk quantification; format: cell-based; settings: SHP2^S502P in PTPN11-null U2OS cells; 50 μM SHP099
Text: as §2, §3, §1

[8] = system: PTPN11-null U2OS cells re-expressing SHP2^WT; assay: Western blot pErk quantification; format: cell-based
Text: as §2, §3, §1

[9] = system: U2OS cells; assay: pERK induction by EGF stimulation in serum-starved U2OS cells, western blot; format: cell-based; settings: U2OS serum starved 48 hours; SHP099 10 µM for 2 hours; EGF 5 nM; lysed 10 min after stimulation
Procedure: or vehicle cont rol f or 2 hours, and t hen st imulat ed wit h EGF. Cells were lysed on ice 10 min
af t er st imulat ion, and pErklevels were analyzed by western blot. […]

[10] = system: wild-type SHP2; design: method as in PMID 27362227; settings: biochemical assays; cited from earlier work
[11] = system: cancer cell lines that are dependent on receptor tyrosine kinases and wild-type SHP2; design: method as in PMID 27362227; settings: cited from earlier work

In the case of `CC1(N)CCN(c2cnc(-c3cccc(Cl)c3Cl)c(N)n2)CC1` [SHP099], the “pErk levels upon SHP099 treatment (western blot)” value ([1]; 2 h treatment) is reported as “dramatically reduces pErk levels”, the IC50 ([1]; read-out: IC50 for pErk reduction by SHP099, 2 h treatment, western blot densitometry) is reported as 2 ± 1 µM and the “pErk levels upon SHP099 treatment (western blot)” value [2] is reported as “unaffected”. The “inhibition of Erk phosphorylation” value [3] was “does not significantly inhibit Erk phosphorylation”, the “inhibition of Erk phosphorylation” value [4] was “does not significantly inhibit Erk phosphorylation” and the IC50 [5] was 8 ± 2 µM. For the same compound, the “inhibition of Erk phosphorylation” value [6] was “does not significantly inhibit Erk phosphorylation”, the “loss of pErk” value [7] was “little, if any, loss of pErk” and the “reduction of pErk levels by SHP099 (incomplete, maximal)” value ([8]; SHP2^WT-rescued PTPN11-null U2OS cells) was ~ 65%. For the same compound, the IC50 ([8]; read-out: IC50 for pErk reduction by SHP099, PTPN11-null cells re-expressing SHP2^WT, 2 h treatment, western blot densitometry) was 4 ± 2 µM, the “pERK induction in response to EGF stimulation” value [9] was “attenuated” and the “affinity for wild-type SHP2” value [10] was “nanomolar affinity”. The antiproliferative activity [11] was “antiproliferative activity”.

— publication PMC6207684, “Structural reorganization of SHP2 by oncogenic mutations and implications for oncoprotein resistance to allosteric inhibition” (Nature Communications, 2018)
